From BindingDB's records for doi:10.1016/j.bmcl.2012.04.093 (University of Lisbon, 2012) come the findings set out here.

The target in this experiment is T1, Neutrophil elastase (Homo sapiens, UniProt P08246).
T1 sequence (P08246 whole entry): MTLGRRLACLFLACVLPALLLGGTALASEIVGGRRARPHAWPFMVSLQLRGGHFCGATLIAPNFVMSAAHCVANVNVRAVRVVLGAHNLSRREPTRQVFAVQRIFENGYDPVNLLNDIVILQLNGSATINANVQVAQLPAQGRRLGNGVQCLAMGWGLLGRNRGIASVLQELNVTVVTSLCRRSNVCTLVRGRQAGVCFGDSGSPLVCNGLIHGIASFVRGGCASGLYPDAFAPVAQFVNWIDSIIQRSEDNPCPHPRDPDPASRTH
Description: Inhibition of human neutrophil elastase using chromogenic substrate (N-MeOSuc-Ala-Ala-Pro-Val-p-nitroanilide after 120 mins.

A word on the IC50: it is the midpoint of a concentration-inhibition curve. Low values mean higher potency, high ones lower potency. `Cc1oc(=O)n(Cc2ccccc2)c1O` showed an IC50 above 500 µM.
The figure for `COc1ccc(C(=O)n2c(O)c(C)oc2=O)cc1` is above 500 µM.
